Patent publication US20090220964A1, “METHODS FOR DIAGNOSING AND TREATING CANCERS VIA MANIPULATIONS OF A...PATHWAY” (UNIVERSITY OF CINCINNATI, priority 2006, published 2009)

How the values were obtained:
HIF-1α peptide = conditions: nuclear extracts from VHL(+) cells treated with 25 μM H2O2, collected after 4 h; 17-amino acid peptide
Description: (§1) The in vitro reactions of synthetic Rpb1 and HIF-1α peptides were performed using nuclear extracts from cells treated with 25 μM H2O2 and collected after 4 h.

Rpb1 peptides = conditions: nuclear extracts from 786-0 VHL(+) cells treated with 25 μM H2O2, collected after 4 h; 37- or 24-amino acid peptides
Description: as §1

Rpb1 = conditions: 786-0 VHL(+) cells, 25 μM H2O2, 15 min, nuclease digested extracts
Description: The antibody was used to investigate the role of oxidative stress in P1465 hydroxylation and pVHL-dependent ubiquitylation of Rpb1. […] The experiments were performed using RCC 786-0 cells, a well-characterized model of renal cell cancer, in which native pVHL is absent or stably reconstituted (in legend: 786-0 VHL(−) and VHL(+)). The cells were exposed briefly to a low concentration of H2O2 (25 μM, 15 min) to induce a generic oxidative stress, and assayed at the indicated time points after treatment.

pVHL = experiment: Immunoblot of crude chromatin fractions after H2O2 treatment; conditions: cells expressing wild type pVHL, 25 μM H2O2, collected 4 h after treatment
Description: In our experiments, we fractionated the pool of Rpb1 engaged on DNA using nuclease digestion and different salt extractions: the nuclear pellet remaining after standard extraction of nuclei with 0.3 M salt was digested with DNAse and micrococcal nuclease, and the digest was then extracted with the indicated concentrations of NaCl (FIG. 3). […] Two other antibodies against Rpb1 were also used: H14, and N20, which is specific for the N-terminal region of Rpb1, independent of its phosphorylation state.

[1] = test system: deubiquitylating enzymes, isopeptidase T and ubiquitin C-terminal hydrolase L3; experiment: Deubiquitylation of Rpb1 in chromatin extract by deubiquitylating enzymes; format: biochemical; conditions: second 0.5 M chromatin fraction of VHL(+) cells
Excerpt: Rpb1 was immunoprecipitated using H14 antibody from the second 0.5 M chromatin fraction, and the immunoprecipitated Rpb1 was immunobloted with BP and anti-ubiquitin antibodies (FIG. 3D). Clearly, the Rpb1 hyperphosphorylated on Ser-5 is also hydroxylated and ubiquitylated in response to oxidative stress and this response depends on the presence of functional pVHL (FIG. 1C). To confirm ubiquitylation of the hydroxylated and hyperphosphorylated Rpb1, the extracts from the second 0.5 M chromatin fraction of VHL(+) cells were incubated with deubiquitylating enzymes, isopeptidase T and ubiquitin C-terminal hydrolase L3. This treatment results in disappearance of the high migrating forms (FIG. 3E. lane 3) which is prevented by ubiquitin aldehyde, an inhibitor of deubiquitylating enzymes (FIG. 3E, lane 4).

Row | Compound | HIF-1α peptide hydroxylation (capture of [35S]-labeled pVHL) (HIF-1α peptide) | Rpb1 peptide hydroxylation (capture of [35S]-labeled pVHL) (Rpb1 peptides) | hydroxylation of Rpb1 (Rpb1) | enrichment of pVHL in chromatin extract fractions (pVHL) | disappearance of high migrating (ubiquitylated) forms of Rpb1 [1]
1 | OO [H2O2, hydrogen peroxide] | not affected | augmented peptide hydroxylation | induced persistent (lasting several hours) pVHL-dependent hydroxylation of Rpb1 | 3.5+/−1.1 fold increase | 
2 | ubiquitin aldehyde |  |  |  |  | prevented
